This passage reports cytotoxicity results from ChEMBL document CHEMBL3507680, “University of Dundee, Gates Library screen for HepG2 cell viability”.

The nature of the data set: Human HepG2 cell viability assay in 384 well format. In kind it is toxicity, cell-based. Details: dose 125 nL, time 70.5 hour; cytotoxicity at 70.5 h: concentration not given beside the values. As to conditions: HepG2 cells, read-out: Inhibition.
In the case of `CC(C)n1cnnc1CN(C)C(=O)c1ccccc1N1CCOCC1`, the cytotoxicity at 70.5 h was 9.11%. With `O=C(c1cccnc1SC/C=C/c1ccccc1)N1CCOCC(O)C1` (configuration not stated), the cytotoxicity at 70.5 h came out at 1.08%. With `CCCn1cc(S(=O)(=O)N[C@H]2CN(CC(N)=O)C[C@@H]2C2CC2)cn1` the figure was -9.29%; with `Cc1cccnc1[C@H](C)NC(=O)Cc1cc2c(cc1Cl)OCCO2`, 32.1%. For the compound `O=c1cc(C2CCNCC2)nc(CCCc2ccccc2)[nH]1`, the cytotoxicity at 70.5 h is -3.39%.

On to `CC(=O)c1cc(C(=O)N2CCC3(CC2)Nc2ccccc2NC3=O)cs1`, for which the cytotoxicity at 70.5 h was -7.09%.

As to `Cc1nc2c(c(NC3CCN(Cc4cccnc4)CC3)n1)CCNCC2`, the cytotoxicity at 70.5 h is -18.8%. With `COCCN(C)C[C@@H]1CN(C(=O)c2c(C)cccc2OC)C[C@@H]1CO` the figure was -4.17%; with `Cc1ccc2nc(CN3CCCC3c3cccnc3)cc(O)c2c1` (configuration not stated), -2.21%. As to `Cc1noc(CN2CC(=O)N(C)c3ccccc3C2=O)n1`, the cytotoxicity at 70.5 h was -8.97%. Turning to `Nc1nc2c(c(NC3CCCC3)n1)CCN(C(=O)C1CCOC1)CC2` (configuration not stated), the cytotoxicity at 70.5 h amounted to 11.4%.

`O=C(CCc1ccccc1)C1CCCN(C(=O)c2cncc(Cl)c2)C1` (configuration not stated): the cytotoxicity at 70.5 h was -25.5%. `CCc1cnc(N)nc1NCc1ccc(OC)c(OC)c1`: the cytotoxicity at 70.5 h is -1.08%. With `Cc1ccc(C(=O)O)c(N2CC(C)(C)[C@@](C)(O)C2)n1` the figure was -10.6%. On to `Cc1cc(N2CCOC(C(F)(F)F)C2)nc(-c2ccccc2)n1` (configuration not stated), for which the cytotoxicity at 70.5 h is -24.8%. As to `Cc1ccsc1C(CNC(=O)c1cc(=O)c2ccccc2[nH]1)N(C)C` (configuration not stated), the cytotoxicity at 70.5 h was -9.06%. With `O=C(NCc1nc[nH]n1)c1cc(COc2ccccc2F)[nH]n1` the figure was -3.89%. `O=C(O)[C@@H]1CN(CCOCCO)C[C@H]1c1ccccc1`: the cytotoxicity at 70.5 h came to 30%. On to `COCCN(Cc1nc2c(cnn2C)c(=O)[nH]1)C(C)COC` (configuration not stated), for which the cytotoxicity at 70.5 h is -7.19%.

On to `CCCNC(=O)CN1CCC(NC(=O)c2cc(CC)ccc2O)CC1`, for which the cytotoxicity at 70.5 h is -6.46%.

In the case of `Cc1ccc2oc(C(=O)N3CCCC(n4nc(C)nc4C)C3)cc2n1` (configuration not stated), the cytotoxicity at 70.5 h was -9.11%. `CC(C)CN(C)Cc1nc2c(cnn2C)c(=O)[nH]1`: the cytotoxicity at 70.5 h turned out to be 12.1%.

Consider `CC(C)N(Cc1ccccn1)Cc1nc2c(cnn2C)c(=O)[nH]1`, for which the cytotoxicity at 70.5 h was -6.49%. As for `Cc1ccc(CN(Cc2nc3c(cnn3C)c(=O)[nH]2)C(C)C)s1`, the cytotoxicity at 70.5 h was -0.211%.

Regarding `CN(Cc1ccccn1)C(=O)c1nc(S(C)(=O)=O)n2ccccc12`, the cytotoxicity at 70.5 h turned out to be 1.32%. With `CN1CCOC(CNC(=O)COc2ccc(F)cc2F)C1` (configuration not stated) the figure was 0.568%. `CC(O)CNCc1c(C(C)C)nn(C)c1N1CCOCC1` (configuration not stated): the cytotoxicity at 70.5 h was -0.301%.

For the compound `CCNC(=O)CNCc1c(C(C)C)nn(C)c1N1CCOCC1`, the cytotoxicity at 70.5 h is -2.6%.

With `CS(=O)(=O)c1ccc(C(=O)N2CCCC(n3cccn3)C2)cc1` (configuration not stated), the cytotoxicity at 70.5 h was 0.802%. Take `Cc1nnc2n1CCN(C(C(=O)NC1CC1)c1ccc(F)cc1)C2` (configuration not stated): the cytotoxicity at 70.5 h was -3.54%. With `Fc1ccc(-c2nc(CNC3CCc4ncnn4C3)cs2)cc1` (configuration not stated) the figure was 0.825%; with `COc1ccc(S(=O)(=O)NC(=O)COc2ccc3c(c2)CCC3)cc1`, 17.6%; with `CN(Cc1ccccc1)CC(O)Cn1cnc2c(Cl)cc(Cl)cc2c1=O` (configuration not stated), -9.03%. On to `Cc1nn(C)c(C)c1CC(=O)N1CCc2nnc(N(C)C)cc2C1`, for which the cytotoxicity at 70.5 h is -5.78%.

On to `Cc1c(F)cc(C(=O)O)cc1S(=O)(=O)Nc1ccc(C#N)cc1`, for which the cytotoxicity at 70.5 h amounted to 19.6%. As to `CNC(=O)CN1CCC(NC(=O)N(C)Cc2c(C)noc2C)CC1`, the cytotoxicity at 70.5 h stood at 26.1%. As for `O=C1CN(C(=O)c2cccc(OCc3cscn3)c2)CCN1`, the cytotoxicity at 70.5 h was -1.69%. With `Cc1noc(C)c1CN(C)C(=O)NC1CCC(O)CC1` (configuration not stated) the figure was -8.86%; with `CCOc1ccc(Cl)c(C(=O)NCCC(=O)Nc2ccccn2)n1`, -6.63%. With `CCOc1ccc(Cl)c(C(=O)NCCS(N)(=O)=O)n1` the figure was 22%; with `Cc1ccc(C(=O)N2CCN(CCc3ccccc3)CC2)c(=O)[nH]1`, -7.75%.

For `Cc1noc(C)c1CN(C)C(=O)NC1CCOCC1`, the cytotoxicity at 70.5 h came to 21%. With `Cc1noc(C2CCCN(C(=O)CCCNc3ncccn3)C2)n1` (configuration not stated) the figure was 3.05%; with `Cc1noc(C2CCN(C(=O)CCCNc3ncccn3)CC2)n1`, 1.13%. With `Cc1cc(C2CCCN2Cc2ccn(C)c(=O)c2)on1` (configuration not stated) the figure was -3.44%. With `c1cc(-c2nc(CN3CCc4c(ncn4C4CC4)C3)cs2)cs1` the figure was -8.75%; with `O=C(Nc1ccc(OC2CCCC2)cc1)C1CCCN1c1nccs1` (configuration not stated), 26.8%. `Cc1[nH]ncc1C(=O)N1CCCN(Cc2nccn2C(C)C)CC1`: the cytotoxicity at 70.5 h was -1.07%.

As for `O=C(c1ccon1)N1CCCC(n2cncn2)C1` (configuration not stated), the cytotoxicity at 70.5 h was -1.78%. As for `NC(=O)c1cc(C2CCCN(CCOc3ccc(F)cc3)C2)n[nH]1` (configuration not stated), the cytotoxicity at 70.5 h is -2.25%. With `NC(=O)c1cc(C2CCCN(CCCOc3ccc(F)cc3)C2)n[nH]1` (configuration not stated) the figure was 4.69%. With `O=C(c1cc(Cl)cc2cccnc12)N1CCN(CCO)CC1` the figure was -8.63%.

For the compound `CC(C)n1ccnc1CN1CCCN(C(=O)c2cscn2)CC1`, the cytotoxicity at 70.5 h was -2.53%.

Consider `CCc1nc(C2CCCN2CCCS(N)(=O)=O)no1` (configuration not stated), for which the cytotoxicity at 70.5 h was -3.37%.

In the case of `CCOc1ccc(C2CCCN2C(=O)NCCn2ccnc2)cc1` (configuration not stated), the cytotoxicity at 70.5 h was -1.63%. For `CN(C)c1cc(C(=O)N2CCCN(c3cccnn3)CC2)ccn1`, the cytotoxicity at 70.5 h is -9.96%. With `CC(=O)NC1CCCN(Cc2ccn(C)c(=O)c2)C1` (configuration not stated) the figure was -9.51%; with `CCOC1CCN(C(=O)Nc2ccc(=O)n(C)c2)CC1`, 25%. With `CN(C)c1cc(C(=O)N2CCCCC2)ccn1` the figure was 0.476%. Regarding `O=C(NCC1CC1)Nc1ccc(OCC(F)(F)F)nc1`, the cytotoxicity at 70.5 h is -9.95%. With `CC(C)N1CC(C(=O)NCc2cccnc2-n2cccn2)CC1=O` (configuration not stated) the figure was -11%; with `COc1cccc(-n2nnc(C(=O)N3CCN(C(C)=O)CC3)c2C)c1`, -6.81%; with `O=C(Nc1nccs1)NC1CCN(Cc2ccccn2)CC1`, -12.4%. As to `CC(C)c1nnc(NC(=O)NC2CCN(Cc3ccccc3)C2)s1` (configuration not stated), the cytotoxicity at 70.5 h was -2.21%. Turning to `CCC1c2ccsc2CCN1C(=O)NCCc1ccccn1` (configuration not stated), the cytotoxicity at 70.5 h is -9.75%. Regarding `CCC1c2ccsc2CCN1C(=O)NCc1ccc(C)nc1` (configuration not stated), the cytotoxicity at 70.5 h is -10.2%. For the compound `O=C(NCC1CCOC1)Nc1ccc(Oc2ccc(F)cc2)nc1` (configuration not stated), the cytotoxicity at 70.5 h was found to be 15.8%. Take `CC(Nc1cccc(CN2CCOC2=O)c1)C(=O)NC(=O)NC(C)(C)C` (configuration not stated): the cytotoxicity at 70.5 h was -16.7%. With `Cn1cc(NC(=O)N2CCC(OCc3ccccc3)CC2)ccc1=O` the figure was -9.18%; with `CCN(CC)c1ccc(C(=O)N2CCCC2Cn2cc(C)cn2)cn1` (configuration not stated), -5.59%; with `COCCOc1ccc(C(=O)N2CCCC(n3cncn3)C2)cn1` (configuration not stated), 10.1%. Consider `CCC1c2ccsc2CCN1C(=O)NCc1cc(C)on1` (configuration not stated), for which the cytotoxicity at 70.5 h was -4.73%.
